Test results as given in patent US20250134870A1, “PATHWAY MODULATOR, PHARMACEUTICAL COMPOSITION HAVING SAME, USE THEREOF, AND THERAPEUTIC METHOD USING SAME” (Jiangsu Yahong Meditech Co., Ltd., priority 2021, published 2025).

Legend:
congestive heart failure = conditions: cited from earlier work
[1] = test system: imiquimod (IMQ)-induced psoriasis; experiment: Imiquimod (IMQ)-induced psoriasis in mice: erythema, scales, thickness, total score, AUC (Example 8); format: in vivo, Balb/c mice; parameters: key to erythema score / scales score / thickness score: 0 = none, 1 = mild, 2 = moderate, 3 = obvious/severe; key to total score of erythema + scales + thickness: sum of three 0-3 scores (erythema + scales + thickening), 0-9
Description: All mice were shaved with a pet shaver to get an area of 2×3 cm on the back one day before the start of the experiment.
65 animals were randomly divided into groups according to body weight, and the dosing regimen was as follows.
Imiquimod (IMQ) cream: 62.5 mg of IMQ cream for each mouse in G2 to G7; Dexamethasone (DEX) ointment: 70 mg of ointment for each mouse in G4;
Tofacitinib: Tofacitinib was dissolved in dimethyl sulfoxide to 5 mg/mL, and 50 μL was added to IMQ cream for daily treatment.
Mice in Groups 2 to 7 received daily topical doses of 62.5 mg of IMQ cream on their shaved back from Day 0 to Day 7.
Dosing of the test compounds and reference substance was carried out according to Table 29 for 7 consecutive days.
To assess the severity of inflammation of skin on the back, the skin on the back was scored according to Table 30. Erythema, scales and thickening were scored independently on a scale of 0 to 3, 0, none; 1. mild; 2. moderate; 3. obvious/severe.
The inhibition rate was calculated according to the following formula: Inhibition rate=[AUC (solvent)−AUC (treatment)]/AUC (solvent)×100%. Wherein, solvent referred to the solvent group corresponding to the route of administration.

[2] = Day 0, 50 mg/kg oral QD (Nepicastat A)
[3] = Day 0, 100 mg/kg topical QD (Nepicastat B)
[4] = Day 0, group Nepicastat A (50 mpk oral)
[5] = Day 0, group Nepicastat B (100 mpk topical)
[6] = Day 1, 50 mg/kg oral QD (Nepicastat A)
[7] = Day 1, 100 mg/kg topical QD (Nepicastat B)
[8] = Day 1, group Nepicastat A (50 mpk oral)
[9] = Day 1, group Nepicastat B (100 mpk topical)
[10] = Day 2, 50 mg/kg oral QD (Nepicastat A)
[11] = Day 2, 100 mg/kg topical QD (Nepicastat B)
[12] = Day 2, group Nepicastat A (50 mpk oral)
[13] = Day 2, group Nepicastat B (100 mpk topical)
[14] = Day 3, 50 mg/kg oral QD (Nepicastat A)
[15] = Day 3, 100 mg/kg topical QD (Nepicastat B)
[16] = Day 3, group Nepicastat A (50 mpk oral)
[17] = Day 3, group Nepicastat B (100 mpk topical)
[18] = Day 4, 50 mg/kg oral QD (Nepicastat A)
[19] = Day 4, 100 mg/kg topical QD (Nepicastat B)
[20] = Day 4, group Nepicastat A (50 mpk oral)
[21] = Day 4, group Nepicastat B (100 mpk topical)
[22] = Day 5, 50 mg/kg oral QD (Nepicastat A)
[23] = Day 5, 100 mg/kg topical QD (Nepicastat B)
[24] = Day 5, group Nepicastat A (50 mpk oral)
[25] = Day 5, group Nepicastat B (100 mpk topical)

NCc1c[nH]c(=S)n1[C@H]1CCc2c(F)cc(F)cc2C1 [Nepicastat]
effect in the treatment of heart failure (congestive heart failure; further clinical studies): no effect in the treatment of heart failure
tolerability (congestive heart failure; patients, congestive heart failure): well tolerated in patients
progression and incidence of the disease ([1]; 50 mg/kg oral and 100 mg/kg topical QD × 7 days): did not affect the progression and incidence of the disease, but showed efficacy at the later stages of the disease course (Day 5 to Day 7)
efficacy on the clinical score of the skin ([1]; 100 mpk topical QD × 7 days): no significant efficacy
erythema score [1, 2]: 0
scales score [1, 2]: 0
erythema score [1, 3]: 0
scales score [1, 3]: 0
thickness score [1, 4]: 0
total score of erythema + scales + thickness [1, 4]: 0
thickness score [1, 5]: 0
total score of erythema + scales + thickness [1, 5]: 0
erythema score [1, 6]: 0
scales score [1, 6]: 0
erythema score [1, 7]: 0
scales score [1, 7]: 0
thickness score [1, 8]: 0.6
total score of erythema + scales + thickness [1, 8]: 0.6
thickness score [1, 9]: 0.9
total score of erythema + scales + thickness [1, 9]: 0.9
erythema score [1, 10]: 1.4
scales score [1, 10]: 0
erythema score [1, 11]: 1.5
scales score [1, 11]: 0
thickness score [1, 12]: 1.2
total score of erythema + scales + thickness [1, 12]: 2.6
thickness score [1, 13]: 1.3
total score of erythema + scales + thickness [1, 13]: 2.8
erythema score [1, 14]: 1.5
scales score [1, 14]: 0
erythema score [1, 15]: 1.8
scales score [1, 15]: 0
thickness score [1, 16]: 1.6
total score of erythema + scales + thickness [1, 16]: 3.1
thickness score [1, 17]: 1.5
total score of erythema + scales + thickness [1, 17]: 3.3
erythema score [1, 18]: 1.6
scales score [1, 18]: 1.1
erythema score [1, 19]: 1.8
scales score [1, 19]: 1.2
thickness score [1, 20]: 1.4
total score of erythema + scales + thickness [1, 20]: 4.1
thickness score [1, 21]: 1.5
total score of erythema + scales + thickness [1, 21]: 4.5
erythema score [1, 22]: 1.6
scales score [1, 22]: 1.6
erythema score [1, 23]: 1.7
scales score [1, 23]: 2.5
thickness score [1, 24]: 1.3
total score of erythema + scales + thickness [1, 24]: 4.5
thickness score [1, 25]: 1.3
total score of erythema + scales + thickness [1, 25]: 5.5
erythema score ([1]; Day 6, 50 mg/kg oral QD (Nepicastat A)): 1.7
